Assay results published in patent US6987114B1, “Antiviral pyrimidinedione derivatives and process for the preparation thereof” (Samjin Pharmaceutical Co., Ltd, priority 1999, dated 2006).
≈ marks a conversion by molar mass, not a printed value. Like-named read-outs stand apart in the source and are kept apart here.

Columns and labels:
mock-infected MT-4 cells = test: Cytotoxicity based on viability of mock-infected host cells (MTT method); assay type: cell-based; settings: mock-infected MT-4 cells, MTT method, 4 or 5 days at 37° C.
In short: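 Mock-infected MT-4 cells at 2.5×10^5 cells/ml were exposed to various concentrations of test compound, run in parallel with HIV-infected (1000 CCID50) cultures. After 4 or 5 days at 37° C., host-cell viability was read by MTT.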

HIV = test: microbe, parasite or virus in culture; assay type: cell-based
In short: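 MT-4 cells (2.5×10^5 cells/ml) infected with 1000 CCID50 HIV, added at once to compound dilutions, incubated 4 or 5 days at 37° C. Protection from virus-induced cytopathic effect read by MTT; cytotoxicity from MTT viability of mock-infected cells in parallel.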

[1] = Human immunodeficiency virus 1, MT4, read-out: ED50
[2] = Human immunodeficiency virus 1, MT4, HIV-infected MT-4 cells, MTT method, 4 or 5 days at 37° C., read-out: ED50 (the source's name)

Row | Compound | melting point | CD50 (mock-infected MT-4 cells) | EC50 (HIV; [1]) | EC50 (HIV; [2])
1 | CCc1c(Oc2cc(C)cc(C)c2)n(Cc2nc3ccccc3o2)c(=O)[nH]c1=O [Example 147, 1-(Benzoxazol-2-ylmethyl)-5-ethyl-6-(3,5-dimethylphenoxy)-2,4-pyrimidinedione] | 121 to 123 °C | 40.20 µg/mL | 0.061 µg/mL (≈ 0.156 µM) | –
2 | Cc1cc(C)cc(Oc2c(C(C)C)c(=O)[nH]c(=O)n2Cc2nc3ccccc3o2)c1 [Example 148, 1-(Benzoxazol-2-ylmethyl)-5-isopropyl-6-(3,5-dimethylphenoxy)-2,4-pyrimidinedione] | 200 to 202 °C | 9.00 µg/mL | 0.01 µg/mL (≈ 0.0247 µM) | –
3 | CCc1c(C(=O)c2cc(C)cc(C)c2)n(Cc2nc3ccccc3o2)c(=O)[nH]c1=O [Example 149, 1-(Benzoxazol-2-ylmethyl)-5-ethyl-6-(3,5-dimethyl-benzoyl)-2,4-pyrimidinedione] | 218 to 220 °C | 6.78 µg/mL | 0.029 µg/mL (≈ 0.0719 µM) | –
4 | COC(=O)c1ccoc1Cn1c(Sc2cc(C)cc(C)c2)c(C(C)C)c(=O)[nH]c1=O [Example 152, 1-(3-Methoxycarbonyl-2-furanylmethyl)-5-isopropyl-6-(3,5-dimethylphenyl)thio-2,4-pyrimidinedione] | 135 to 137 °C | 9.61 µg/mL | – | 0.018 µg/mL (≈ 0.042 µM)
5 | CCc1c(Oc2cc(C)cc(C)c2)n(Cc2occc2C(=O)OC)c(=O)[nH]c1=O [Example 153, 1-(3-Methoxycarbonyl-2-furanylmethyl)-5-ethyl-6-(3,5-dimethylphenoxy)-2,4-pyrimidinedione] | 150 to 152 °C | 12.22 µg/mL | – | 0.278 µg/mL (≈ 0.698 µM)
6 | COC(=O)c1ccoc1Cn1c(Oc2cc(C)cc(C)c2)c(C(C)C)c(=O)[nH]c1=O [Example 154, 1-(3-Methoxycarbonyl-2-furanylmethyl)-5-isopropyl-6-(3,5-dimethylphenoxy)-2,4-pyrimidinedione] | 157 to 159 °C | 10.11 µg/mL | – | 0.074 µg/mL (≈ 0.179 µM)
7 | CCc1c(C(=O)c2cc(C)cc(C)c2)n(Cc2occc2C(=O)OC)c(=O)[nH]c1=O [Example 155, 1-(3-Methoxycarbonyl-2-furanylmethyl)-5-ethyl-6-(3,5-dimethyl-benzoyl)-2,4-pyrimidinedione] | 204 to 206 °C | 13.45 µg/mL | – | 0.017 µg/mL (≈ 0.0414 µM)
8 | COC(=O)c1ccoc1Cn1c(C(=O)c2cc(C)cc(C)c2)c(C(C)C)c(=O)[nH]c1=O [Example 156, 1-(3-Methoxycarbonyl-2-furanylmethyl)-5-isopropyl-6-(3,5-dimethyl-benzoyl)-2,4-pyrimidinedione] | 180 to 183 °C | 10.92 µg/mL | – | 0.014 µg/mL (≈ 0.033 µM)
9 | CCc1c(Oc2cc(C)cc(C)c2)n(CC(C)=O)c(=O)[nH]c1=O [Example 157, 1-(Acetonyl)-5-ethyl-6-(3,5-dimethylphenoxy)-2,4-pyrimidinedione] | 162 to 165 °C | 3.6 µg/mL | 0.0119 µg/mL (≈ 0.0376 µM) | –
10 | CC(=O)Cn1c(Oc2cc(C)cc(C)c2)c(C(C)C)c(=O)[nH]c1=O [Example 158, 1-(Acetonyl)-5-isopropyl-6-(3,5-dimethylphenoxy)-2,4-pyrimidinedione] | 181 to 183 °C | >100.00 µg/mL | 0.0043 µg/mL (≈ 0.013 µM) | –
11 | CCc1c(C(=O)c2cc(C)cc(C)c2)n(CC(C)=O)c(=O)[nH]c1=O [Example 159, 1-(Acetonyl)-5-ethyl-6-(3,5-dimethylbenzoyl)-2,4-pyrimidinedione] | 186 to 189 °C | 11.8 µg/mL | 0.0018 µg/mL (≈ 0.00548 µM) | –
12 | CC(=O)Cn1c(C(=O)c2cc(C)cc(C)c2)c(C(C)C)c(=O)[nH]c1=O [Example 160, 1-(Acetonyl)-5-isopropyl-6-(3,5-dimethylbenzoyl)-2,4-pyrimidinedione] | 181 to 183 °C | 14.0 µg/mL | 0.0005 µg/mL (≈ 0.00146 µM) | –
13 | CCC(=O)Cn1c(Oc2cc(C)cc(C)c2)c(CC)c(=O)[nH]c1=O [Example 161, 1-(2-Butanon-1-yl)-5-ethyl-6-(3,5-dimethylphenoxy)-2,4-pyrimidinedione] | 116 to 118 °C | 48.0 µg/mL | 0.018 µg/mL (≈ 0.0545 µM) | –
14 | CCC(=O)Cn1c(Oc2cc(C)cc(C)c2)c(C(C)C)c(=O)[nH]c1=O [Example 162, 1-(2-Butanon-1-yl)-5-isopropyl-6-(3,5-dimethylphenoxy)-2,4-pyrimidinedione] | 135 to 138 °C | 41.40 µg/mL | 0.0159 µg/mL (≈ 0.0462 µM) | –
15 | CCC(=O)Cn1c(C(=O)c2cc(C)cc(C)c2)c(C(C)C)c(=O)[nH]c1=O [Example 164, 1-(2-Butanon-1-yl)-5-isopropyl-6-(3,5-dimethylbenzoyl)-2,4-pyrimidinedione] | 174 to 176 °C | 20.58 µg/mL | 0.0026 µg/mL (≈ 0.00729 µM) | –
